Usually IC50 stands for the concentration that gives 50% inhibition.

The target of the first assay is T1, P2X7 receptor (Homo sapiens, UniProt Q99572).
T1 construct: host or cells: SH-SY5Y
T1 sequence (Q99572 1-595): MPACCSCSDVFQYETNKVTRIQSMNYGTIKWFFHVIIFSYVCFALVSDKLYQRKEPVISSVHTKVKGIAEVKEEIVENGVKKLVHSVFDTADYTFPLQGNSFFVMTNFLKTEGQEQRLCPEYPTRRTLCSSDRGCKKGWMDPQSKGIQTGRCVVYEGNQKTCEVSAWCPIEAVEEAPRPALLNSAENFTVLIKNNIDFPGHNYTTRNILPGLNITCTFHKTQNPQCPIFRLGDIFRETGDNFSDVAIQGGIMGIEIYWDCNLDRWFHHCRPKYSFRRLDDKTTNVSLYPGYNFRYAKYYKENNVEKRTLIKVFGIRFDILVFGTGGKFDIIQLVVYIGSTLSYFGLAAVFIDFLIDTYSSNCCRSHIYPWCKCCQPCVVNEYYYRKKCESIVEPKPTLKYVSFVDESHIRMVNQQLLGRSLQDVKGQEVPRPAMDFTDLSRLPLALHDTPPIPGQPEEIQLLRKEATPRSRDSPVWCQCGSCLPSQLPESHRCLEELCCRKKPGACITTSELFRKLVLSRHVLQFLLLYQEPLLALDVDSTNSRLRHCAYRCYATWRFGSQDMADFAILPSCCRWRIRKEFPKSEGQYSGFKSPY
The assay can be described thus: High throughput P2X7 calcium mobilization assay (Example 4A). The format is cell-based. Particulars: SH-SY5Y cells; 50% decrease in fluorescence response of cells exposed to 80 μM BzATP; Table I. An outline of the steps:
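SH-SY5Y cells loaded with 2.3 μM Fluo-4 AM for 1 h at 37 °C, then preincubated 1 h at room temperature with test compound (final 1–2500 nM) in low-sodium sucrose buffer, pH 7.4. Antagonism measured against 80 μM BzATP (about EC50) as peak FLIPR calcium fluorescence over 2 min, corrected by no-agonist background.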
(In general: Calcium flux is commonly read through the fluorescence of an indicator in the cells.)
For `O=C(NCC1(c2ccc(C(F)(F)F)cc2)CCCCC1)c1cn(-c2ncccn2)nc1C(F)(F)F` [Compound 196, 1-pyrimidin-2-yl-3-(trifluoromethyl)-N-({1-[4-(trifluoromethyl)phenyl]cyclohexyl]methyl)-1H-pyrazole-4-carboxamide], the IC50 is not above 2 µM.
The same measure, in the same setting: in the case of `CCc1nc(-c2ncccn2)sc1C(=O)NCC1(c2ccc(Cl)nc2)CCCC1` [Compound 288, N-{[1-(6-chloropyridin-3-yl)cyclopentyl]methyl}-4-ethyl-2-pyrimidin-2-yl-1,3-thiazole-5-carboxamide] it was not above 2 µM; in that of `Nc1cccnc1-n1cc(C(=O)NCC23CC4CC(CC(C4)C2)C3)c(C(F)(F)F)n1` [Compound 131, N-(adamantan-1-ylmethyl)-1-(3-aminopyridin-2-yl)-3-(trifluoromethyl)-1H-pyrazole-4-carboxamide], not above 2 µM; in that of `O=C(NCC12CC3CC(CC(C3)C1)C2)c1cnc(-c2ccccc2C(F)(F)F)s1` [Compound 67, N-(adamantan-1-ylmethyl)-2-[2-(trifluoromethyl)phenyl]-1,3-thiazole-5-carboxamide], not above 2 µM.
Same read-out and setting: in the case of `CC(C)CC(CNC(=O)c1cn(-c2ncc(F)c(N)n2)nc1C(F)(F)F)c1ccc(Cl)cc1` (centres unmarked) [Compound 140, 1-(4-amino-5-fluoropyrimidin-2-yl)-N-[2-(4-chlorophenyl)-4-methylpentyl]-3-(trifluoromethyl)-1H-pyrazole-4-carboxamide] it was not above 2 µM; in that of `Cc1nn(-c2ncc(F)cn2)cc1C(=O)NCC12CC3CC(CC(C3)C1)C2` [Compound 112, N-(adamantan-1-ylmethyl)-1-(5-fluoropyrimidin-2-yl)-3-methyl-1H-pyrazole-4-carboxamide], not above 2 µM; in that of `Nc1cnc(-n2cc(C(=O)NCC34CC5CC(CC(C5)C3)C4)c(C(F)(F)F)n2)cn1` [Compound 148, N-(adamantan-1-ylmethyl)-1-(5-aminopyrazin-2-yl)-3-(trifluoromethyl)-1H-pyrazole-4-carboxamide], not above 2 µM.
Still for that read-out and setting: with `O=C(NCC1(c2cccnc2)CCCCC1)c1sc(-n2cncn2)nc1C(F)(F)F` [Compound 310, N-[(1-pyridin-3-ylcyclohexyl)methyl]-2-(1H-1,2,4-triazol-1-yl)-4-(trifluoromethyl)-1,3-thiazole-5-carboxamide] the figure was not above 2 µM; with `CCc1cnc(-n2cc(C(=O)NCC34CC5CC(CC(C5)C3)C4)c(C)n2)nc1` [Compound 102, N-(adamantan-1-ylmethyl)-1-(5-ethylpyrimidin-2-yl)-3-methyl-1H-pyrazole-4-carboxamide], not above 2 µM; with `O=C(NCC(O)C12CC3CC(CC(C3)C1)C2)c1cn(-c2ncccn2)nc1C(F)(F)F` (centres unmarked) [Compound 205, N-(2-adamantan-1-yl-2-hydroxyethyl)-1-pyrimidin-2-yl-3-(trifluoromethyl)-1H-pyrazole-4-carboxamide], not above 2 µM.
As for `O=C(NCC1(c2cccnc2)CCCCC1)c1cn(-c2ncc(F)cn2)nc1C(F)(F)F` [Compound 152, 1-(5-fluoropyrimidin-2-yl)-N-[(1-pyridin-3-ylcyclohexyl)methyl]-3-(trifluoromethyl)-1H-pyrazole-4-carboxamide], the concentration for half-maximal inhibition (IC50) is not above 2 µM.
Still for that read-out and setting: with `O=C(NCC1(c2cccnc2)CCCCC1)c1sc(-n2ccccc2=O)nc1C(F)(F)F` [Compound 293, 2-(2-oxopyridin-1(2H)-yl)-N-[(1-pyridin-3-ylcyclohexyl)methyl]-4-(trifluoromethyl)-1,3-thiazole-5-carboxamide] the figure was not above 2 µM; with `O=C(NCC1(c2cccnc2)CCCCC1)c1sc(-c2nccs2)nc1C(F)(F)F` [Compound 317, N-[(1-pyridin-3-ylcyclohexyl)methyl]-4-(trifluoromethyl)-2,2′-bi-1,3-thiazole-5-carboxamide], not above 2 µM; with `CCc1nc(-n2cc(C(=O)NCC34CC5CC(CC(C5)C3)C4)c(C)n2)ncc1C` [Compound 106, N-(adamantan-1-ylmethyl)-1-(4-ethyl-5-methylpyrimidin-2-yl)-3-methyl-1H-pyrazole-4-carboxamide], not above 2 µM.
With `COc1ccc(C2(CNC(=O)c3cn(-c4ncccn4)nc3C(F)(F)F)CCCCC2)cc1` [Compound 199, N-{[1-(4-methoxyphenyl)cyclohexyl]methyl}-1-pyrimidin-2-yl-3-(trifluoromethyl)-1H-pyrazole-4-carboxamide], the IC50 is not above 2 µM.
The same measure, in the same setting: in the case of `CCNC(=O)c1nc(-n2cc(C(=O)NCC34CC5CC(CC(C5)C3)C4)c(C)n2)ncc1C` [Compound 107, 2-{4-[(adamantan-1-ylmethyl)carbamoyl]-3-methyl-1H-pyrazol-1-yl]-N-ethyl-5-methylpyrimidine-4-carboxamide] it was not above 2 µM; in that of `Cc1nc(-c2ncccn2)sc1C(=O)NCC1(c2cccnc2)CCCCC1` [Compound 289, 4-methyl-N-[(1-pyridin-3-ylcyclohexyl)methyl]-2-pyrimidin-2-yl-1,3-thiazole-5-carboxamide], not above 2 µM; in that of `O=C(NCC(CC1CCCCC1)c1ccccc1)c1cn(-c2ncccn2)nc1C(F)(F)F` (centres unmarked) [Compound 213, N-(3-cyclohexyl-2-phenypropyl)-1-pyrimidin-2-yl-3-(trifluoromethyl)-1H-pyrazole-4-carboxamide], not above 2 µM.
On the same count and under the same terms, with `Nc1nc(-n2cc(C(=O)NCC3(O)CCCCCC3)c(C(F)(F)F)n2)ncc1F` [Compound 154, 1-(4-amino-5-fluoropyrimidin-2-yl)-N-[(1-hydroxycycloheptyl)methyl]-3-(trifluoromethyl)-1H-pyrazole-4-carboxamide] the figure was not above 2 µM.
The same measure, in the same setting: in the case of `CC(C)(C)OC(=O)NC1CCN(c2nc(C(F)(F)F)c(C(=O)NCC3(c4cccnc4)CCCCC3)s2)CC1` [Compound 301, tert-butyl {1-[5-{[(1-pyridin-3-ylcyclohexyl)methyl]carbamoyl}-4-(trifluoromethyl)-1,3-thiazol-2-yl]piperidin-4-yl}carbamate] it was not above 2 µM.
Take `Nc1cncc(-n2cc(C(=O)NCC34CC5CC(CC(C5)C3)C4)c(C(F)(F)F)n2)n1` [Compound 137, N-(adamantan-1-ylmethyl)-1-(6-aminopyrazin-2-yl)-3-(trifluoromethyl)-1H-pyrazole-4-carboxamide]: the IC50 was not above 2 µM.
On the same count and under the same terms, in the case of `O=C(NCC(c1ccccc1)C1CCCCC1)c1cn(-c2ncccn2)nc1C(F)(F)F` (centres unmarked) [Compound 211, N-(2-cyclohexyl-2-phenylethyl)-1-pyrimidin-2-yl-3-(trifluoromethyl)-1H-pyrazole-4-carboxamide] it was not above 2 µM; in that of `O=C(NCC12CC3CC(CC(C3)C1)C2)c1cn(-c2ncccn2)nc1C(F)(F)F` [Compound 129, N-(adamantan-1-ylmethyl)-1-pyrimidin-2-yl-3-(trifluoromethyl)-1H-pyrazole-4-carboxamide], not above 2 µM; in that of `Cc1nn(-c2ccccn2)cc1C(=O)NCC12CC3CC(CC(C3)C1)C2` [Compound 98], not above 2 µM.
Still for that read-out and setting: with `O=C(NCC1(c2cccnc2)CCCCC1)c1sc(-c2cnccn2)nc1C(F)(F)F` [Compound 316, 2-pyrazin-2-yl-N-[(1-pyridin-3-ylcyclohexyl)methyl]-4-(trifluoromethyl)-1,3-thiazole-5-carboxamide] the figure was not above 2 µM.

Still in this assay, the particulars now being: SH-SY5Y cells; 50% decrease in fluorescence response of cells exposed to 80 μM BzATP; flag after the MS data in Examples 1-2.
In the case of `COc1nn(-c2ncccn2)cc1C(=O)NCC12CC3CC(CC(C3)C1)C2` [Compound 5, N-(Adamantan-1-ylmethyl)-3-methoxy-1-pyrimidin-2-yl-1H-pyrazole-4-carboxamide], the IC50 is not above 2 µM.

Source of the values: patent publication US9133204B2, “5-membered heterocyclic amides and related compounds” (H. Lundbeck A/S, priority 2007, dated 2015).
